Assay results published in patent US9181183B2, “Prostaglandin D synthase inhibitory piperidine compounds” (Taiho Pharmaceutical Co., Ltd., priority 2010, dated 2015).

Target: human H-PGDS (Homo sapiens, UniProt O60760)
Test: Hematopoietic prostaglandin D synthase (H-PGDS) inhibiting action, [14C]PGH2 to PGD2 conversion, TLC radioassay
Type: biochemical
Conditions: compound 0.1 μM, inhibition rate relative to solvent control group, [14C] prostaglandin H2 10 μM, 25° C.; for inhibition at 0.1 µM: read-out: H-PGDS inh. (% at 0.1 μM)
Experimental: The test was carried out according to the method of Urade, Y. et al. (J. Biol. Chem., 262, 3820-3825, (1987)). More specifically, a reaction mixture (49 μL) containing 100 mM Tris-HCl (pH 8.0), 1 mM reduced form glutathione, 0.1 mg/mL γ-globulin, human H-PGDS (q.s.), and a compound (0.1 μM) was preincubated at 25° C. for 5 minutes. A DMSO solution (final concentration: 1%) was added to the solvent control group. Subsequently, 1 μL of [^14C] prostaglandin H2 (final concentration: 10 μM) was added to start the reaction. One minute after the start of the reaction, 250 μL of a reaction stopper solution (diethylether/methanol/1M citric acid (30/4/1)) cooled with ice was added to stop the reaction. After the reaction was stopped, 50 μL of the upper layer portion (organic solvent phase) was applied to a TLC plate and developed at −20° C. for 45 minutes (developing solvent: diethylether/methanol/acetic acid (90/2/1)). After the TLC plate was dried and exposed to an imaging plate for 1 to 24 hours, the radioactivity corresponding to prostaglandin D2 (PGD2) was analyzed using an image analyzer (produced by Fujifilm Corporation). The area (%) occupied by the PGD2 band per lane and the inhibition rate (%) of each Example compound at 0.1 μM relative to the control group in each experiment were calculated.

Chain of human H-PGDS (O60760 whole entry): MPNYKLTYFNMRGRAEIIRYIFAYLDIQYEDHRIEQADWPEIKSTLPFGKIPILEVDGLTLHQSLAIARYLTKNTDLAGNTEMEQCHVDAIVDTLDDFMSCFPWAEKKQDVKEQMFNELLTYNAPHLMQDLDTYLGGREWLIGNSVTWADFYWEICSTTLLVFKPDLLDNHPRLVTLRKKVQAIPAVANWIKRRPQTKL

Row | Compound | inhibition at 0.1 µM [%] | H-PGDS inh. (% at 0.1 μM) [%]
1 | CC(C)C(=O)Nc1ccc(NC(=O)N2CCC(=Cc3cc(F)ccc3F)CC2)cc1 [Example 77, 4-(2,5-difluorobenzylidene)-N-(4-isobutyramidophenyl)piperidine-1-carboxamide] | 68.1 | 
2 | COC(=O)c1ccccc1CNC(=O)N1CCC(=Cc2cc(F)ccc2F)CC1 [Example 78, Methyl 2-((4-(2,5-difluorobenzylidene)piperidine-1-carboxamido)methyl)benzoate] | 48.3 | 
3 | O=C(Nc1ccc(NC(=O)N2CCC(=Cc3cc(F)ccc3F)CC2)cn1)c1ccccn1 [Example 79, N-(5-(4-(2,5-difluorobenzylidene)piperidine-1-carboxamido)pyridin-2-yl)picolinamide] | 56.8 | 
4 | O=C(Nc1ccc(NC(=O)N2CCC(=Cc3cc(F)ccc3F)CC2)cn1)c1cscn1 [Example 80, N-(5-(4-(2,5-difluorobenzylidene)piperidine-1-carboxamido)pyridin-2-yl)thiazole-4-carboxamide] | 66 | 
5 | O=C(Nc1ncc(Cn2cncn2)s1)N1CCC(=Cc2cc(F)ccc2F)CC1 [Example 81, N-(5-((1H-1,2,4-triazol-1-yl)methyl)thiazol-2-yl)-4-(2,5-difluorobenzylidene)piperidine-1-carboxamide] | 72.8 | 
6 | Cc1nccn1Cc1cnc(NC(=O)N2CCC(=Cc3cc(F)ccc3F)CC2)s1 [Example 82, 4-(2,5-difluorobenzylidene)-N-(5-((2-methyl-1H-imidazol-1-yl)methyl)thiazol-2-yl)piperidine-1-carboxamide] | 82.7 | 
7 | Cc1nccn1Cc1cnc(NC(=O)N2CCC(=Cc3ccccn3)CC2)s1 [Example 83, N-(5-((2-methyl-1H-imidazol-1-yl)methyl)thiazol-2-yl)-4-(pyridin-2-ylmethylene)piperidine-1-carboxamide] | 41.6 | 
8 | O=C(Nc1ncc(CN2CCOCC2)s1)N1CCC(=Cc2cc(F)ccc2F)CC1 [Example 84, 4-(2,5-difluorobenzylidene)-N-(5-(morpholinomethyl)thiazol-2-yl)piperidine-1-carboxamide] | 78.5 | 
9 | O=C(Nc1cnc2ccccc2c1)N1CCC(=Cc2ccccn2)CC1 [Example 85, 4-(pyridin-2-ylmethylene)-N-(quinolin-3-yl)piperidine-1-carboxamide] | 35 | 
10 | N-(4-(2-(4-(pyridin-2-ylmethylene)piperidine-1-carboxamido)thiazol-5-yl)phenyl)morpholin-1-yl-carboxamide [Example 25] |  | 56.4
11 | N-(4-(4-(morpholin-1-yl-carbonyl)piperidin-1-yl)phenyl)-2-(4-(pyridin-2-ylmethylene)piperidine-1-carboxamido)thiazole-5-carboxamide [Example 15] |  | 68.6
12 | N-(4-(morpholin-1-yl-carbonyl)phenyl)-2-(4-(pyridin-2-ylmethylene)piperidine-1-carboxamido)thiazole-5-carboxamide [Example 19] |  | 55.1
13 | N-(5-(4-(cyclopropylcarboxamido)phenyl)thiazol-2-yl)-4-(pyridin-2-ylmethylene)piperidine-1-carboxamide [Example 21] |  | 58.7
14 | N-(5-(morpholin-1-yl-carbonyl)thiazol-2-yl)-4-(pyridin-2-ylmethylene)piperidine-1-carboxamide [Example 13] |  | 48.3
15 | N-(6-(1H-1,2,3-triazol-1-ylmethyl)acetamide)benzo[d]thiazol-2-yl)-4-(pyridin-2-ylmethylene)-piperidine-1-carboxamide [Example 12] |  | 52.5
16 | N-(6-(4-morpholin-1-yl-carbonylphenyl)-benzo[d]thiazol-2-yl)-4-(pyridin-2-ylmethylene)-piperidine-1-carboxamide [Example 2] |  | 64.4
17 | Phenyl 4-(4-(2,5-difluorobenzylidene)piperidine-1-carboxamido) piperidine-1-carboxylate [Example 39] |  | 62.9
